Entries after “also recorded” stand apart in the source; their conditions may differ.
Key:
[1] = system: R3 cells (osteoclast precursor cells existing in an inflammatory synovial membrane); assay: Suppression of differentiation of R3 cells into osteoclasts (in vitro); type: cell-based, mouse; conditions: 10 ng/ml M-CSF, 100 ng/ml RANKL, 0.5, 1, or 2 μM thiostrepton, 96-well plate, FIG. 2
Description: FIG. 2 is figures showing the effect of thiostrepton on the osteoclast differentiation of R3s (in vitro). Photographs indicate that osteoclast differentiation is suppressed by thiostrepton administration (reds show osteoclasts, and greens show precursor cells).
A) CD45-positive cells of blood and a synovial membrane of a collagen-induced arthritis model mouse (CIA model) were selected by flow cytometry, and the cell fractions were identified with the fluorescence of CX3CR1-EGFP and Ly6C-APC. A CX3CR1lowLy6Chi fraction in blood was defined as R1, a CX3CR1lowLy6Chi fraction in an inflammatory synovial membrane was defined as R2, and a CX3CR1hiLy6Cint fraction was defined as R3 (FIG. 1A).

[2] = system: CX3CR1-positive HLA-DRhi cells from synovial fluid and articulation tissue of a rheumatoid arthritis patient; assay: Osteoclast differentiation of CX3CR1-positive HLA-DRhi cells of a rheumatoid arthritis patient; type: cell-based; conditions: human RA patient cells, 50 ng/ml M-CSF, 100 ng/ml RANKL, 0.5 μM thiostrepton, 96-well plate; FIG. 5B
Procedure: The photographs indicate that the osteoclast differentiation is inhibited by thiostrepton administration.
When these cells were collected by flow cytometry and cultured on a 96-well plate with 50 ng/ml M-CSF, 100 ng/ml RANKL, and 0.5 μM thiostrepton added.

[3] = system: Collagen-induced arthritis (CIA) mice; assay: Effect in collagen-induced arthritis (CIA) model mouse (in vivo); parameters: species or system DBA-1/J mice; conditions: 20 mg/kg or 50 mg/kg intraperitoneally every other day from the twenty-first day, compared with the control group
Procedure: Collagen-induced arthritis (CIA) mice were divided into three groups, and 20 mg/kg or 50 mg/kg of thiostrepton or a base (contrast) was intraperitoneally administered every other day from the twenty-first day. Methods for producing and evaluating CIA mice are as follows.
Arthritis was caused using 8- to 10-week-old DBA-1/J mice. Chicken type II collagen was dissolved in a 0.05 M acetic acid solution and rotated at 4° C. all night to make a solution at a concentration of 4.0 mg/ml, and the solution was mixed with the same volume of Freund's complete adjuvant. On the first day, 100 μl of the emulsion was injected into the tail of each of the above-mentioned DBA-1/J mice for immunization, and the administration was repeated in the same way on the twenty-first day. The severity of arthritis was evaluated in accordance with a semi-quantitative score method which consists of an established 5-point scale. The scale is as follows: 0: no swelling, 1: slight swelling only in the heel or the tarsal bones, 2: slight swelling from the heel to the tarsal bones, 3: considerable swelling from the heel to the metatarsal articulation, and 4: severe swelling spreading over an area including the heel, the foot, and the toes. […]
Image analysis using micro-CT was performed. The osteoclastic score was determined with reference to previous study (refer to O'Brien, Arthritis Rheumatol. 2016).

Structure (SMILES): C=C(NC(=O)C(=C)NC(=O)c1csc(C2=N[C@@H]3c4csc(n4)[C@H]4NC(=O)c5csc(n5)[C@H]([C@](C)(O)[C@@H](C)O)NC(=O)[C@H]5CSC(=N5)/C(=C/C)NC(=O)[C@H]([C@@H](C)O)NC(=O)c5csc(n5)[C@]3(CC2)NC(=O)[C@H](C)NC(=O)C(=C)NC(=O)[C@H](C)NC(=O)[C@H]([C@@H](C)CC)N[C@@H]2C=Cc3c([C@H](C)O)cc(nc3[C@H]2O)C(=O)O[C@@H]4C)n1)C(N)=O [thiostrepton]
- capability to differentiate into osteoclasts (number of nuclei contained in osteoclasts in one visual field) [1]: remarkably suppressed
- differentiation into osteoclasts (number of nuclei contained in osteoclasts in one visual field) [2]: inhibited; also recorded: significantly suppressed
- arthritis score ([3]; FIG. 3A): decreased significantly
- osteoclastic score imaged by micro-CT (erosion score) ([3]; FIG. 3B): decreased significantly

Reference: US20210393734A1, “THERAPEUTIC AGENT FOR ARTHRITIS” (OSAKA UNIVERSITY, priority 2018, published 2021)
